In one series the test system is SUM149PT. In words: Cytotoxicity in vitro in the presence and absence of elastase (MTT assay). The class given is cell-based. As to conditions: SUM149PT cells, 72 h incubation. As for the experimental part: (§1) Cultivation of cells was performed according to standard procedures with the media recommended by the provider. The cells, in a total volume of 100 μL, were seeded in a 96-well plate with a white bottom (#3610). After a 24 h incubation period at 37° C. and 5% CO2, the medium was exchanged by adding 90 μL fresh medium. The treatment started by adding the test compound in 10 μL of culture medium to the cells in triplicates. Concentrations ranging from 10^−5 M to 10^−13 M were chosen. Two identically treated sets of samples were prepared. One set was treated with the test compound alone, whereas to the second set the compound and 10 nM elastase (NE) was added followed by a 72 h incubation period at 37° C. and 5% CO2. The proliferation was detected using the MTT assay (ATCC). At the end of the incubation period the MTT reagent was added to all samples for 4h. Lysis of the cells followed by addition of the detergent was done overnight. The formed dye was detected at 570 nm. The proliferation of untreated but otherwise identically handled cells was defined as the 100% value. The dose response curves allowed the determination of the respective IC50 values. […]

The next series concerns HT29. Described as above. As to conditions: HT29 cells, 72 h incubation. The class given is cell-based. As for the experimental part: as §1
In a further series the test system is NCI-H292. Described as above. The series is classed as cell-based. As to conditions: NCI-H292 cells, 72 h incubation. As for the experimental part: as §1
A further series concerns 786-O. The description is as above. As to conditions: 786-O cells, 72 h incubation. The class given is cell-based. On the procedure: as §1
Series [1] is described as follows: Pharmacokinetics in rat after intravenous administration. The series is classed as in vivo. As to conditions: plasma, male rats, intravenous bolus 0.5 mg/kg; for clearance: read-out: CL plasma; for Vd: read-out: VSS. As for the experimental part: Male rats (n=3) were given an intravenous 0.5 mg/kg bolus dose of test article dissolved in plasma with 1% DMSO and 2% ethanol. Serial blood samples were collected up to 24 hours post-dose. Plasma was harvested from blood samples and stored frozen until sample analysis. Test article plasma concentrations were analyzed by LC/MS/MS. Pharmacokinetic parameters were calculated using non-compartmental analysis.

Setting [2] is: compound alone, read-out: IC50 without neutrophil elastase.
[3] abbreviates: with 10 nM elastase (NE), read-out: IC50 with neutrophil elastase.

Like-named read-outs stand apart in the source and are kept apart here.

Experimental findings from patent US20260183405A1, “SMALL MOLECULE-DRUG-CONJUGATES CLEAVABLE IN A TUMOR MICROENVIRONMENT” (priority 2022, published 2026) are described below.

For `CCCNC(=O)Nc1cccc(S(=O)(=O)Nc2cccc([C@@H](CC(=O)O)NC(=O)Nc3ccc(NC(=O)NCCOCCOCCOCCC(=O)N[C@@H](CC(=O)O)C(=O)N4CCC[C@H]4C(=O)N[C@H](C(=O)NCCCN(C(=O)CO)[C@@H](c4cc(-c5cc(F)ccc5F)cn4Cc4ccccc4)C(C)(C)C)C(C)C)cc3)c2)c1` [Compound 25, disodium 1-[(2S)-2-(carboxylatomethyl)-17-{4-[({(1R)-2-carboxylato-1-[3-({3-[(propylcarbamoyl)amino]benzene-1-sulfonyl}amino)phenyl]ethyl}carbamoyl)amino]anilino}-4,17-dioxo-7,10,13-trioxa-3,16-diazaheptadecanan-1-oyl]-L-prolyl-N-{3-[({1R)-1-[1-benzyl-4-(2,5-difluorophenyl)-1H-pyrrol-2-yl]-2,2-dimethylpropyl}(hydroxyacetyl)amino]propyl}-L-valinamide], the IC50 – broadly, the concentration that gives 50% inhibition – in the series with SUM149PT (setting [2]) was above 1000 nM; with SUM149PT (setting [3]), 1 to 9.9 nM; in the series on HT29 (setting [2]), above 1000 nM; in the series with HT29 (setting [3]) it was 1 to 9.9 nM; in the series with NCI-H292 (setting [2]), above 1000 nM; with NCI-H292 (setting [3]), 10 to 99 nM.

Take `CCc1c2c(nc3ccccc13)-c1cc3c(c(=O)n1C2)COC(=O)[C@@]3(CC)OC(=O)[C@@H](NC(=O)[C@@H]1CCCN1C(=O)[C@H](CC(=O)O)NC(=O)CCOCCOCCOCCNC(=O)NC[C@H](NC(=O)CCCCNc1cc(C)ccn1)C(=O)N[C@@H](CC(=O)O)c1cc(Cl)cc(Cl)c1)C(C)C` [Compound 29, disodium (4S)-4,11-diethyl-3,14-dioxo-3,4,12,14-tetrahydro-1H-pyrano[3′,4′:6,7]indolizino[1,2-b]quinolin-4-yl 1-{(2S,20S)-20-{[(1S)-2-carboxylato-1-(3,5-dichlorophenyl)ethyl]carbamoyl}-2-(carboxylatomethyl)-26-[(4-methylpyridin-2-yl)amino]-4,17,22-trioxo-7,10,13-trioxa-3,16,18,21-tetraazahexacosanan-1-oyl}-L-prolyl-L-valinate]: the IC50 with SUM149PT (setting [2]) was 100 to 999 nM; in the series with SUM149PT (setting [3]) it was 1 to 9.9 nM; in the series with 786-O (setting [2]), 100 to 999 nM; in the series on 786-O (setting [3]), 1 to 9.9 nM; in the series on HT29 (setting [2]), above 1000 nM; in the series with HT29 (setting [3]), 10 to 99 nM. In addition, the IC50 is 100 to 999 nM in the series on NCI-H292 (setting [2]) and 1 to 9.9 nM with NCI-H292 (setting [3]).

As for `CCc1c2c(nc3ccccc13)-c1cc3c(c(=O)n1C2)COC(=O)[C@@]3(CC)OC(=O)[C@@H](NC(=O)[C@@H]1CCCN1C(=O)[C@H](CC(=O)O)NC(=O)CCOCCOCCOCCNC(=O)NCCCC[C@H](NC(=O)N[C@@H](CCC(=O)O)C(=O)O)C(=O)O)C(C)C` [Compound 5, tetrasodium (4S)-4,11-diethyl-3,14-dioxo-3,4,12,14-tetrahydro-1H-pyrano[3′,4′:6,7]indolizino[1,2-b]quinolin-4-yl 1-[(2S,23S,27S)-23,27,29-tricarboxylato-2-(carboxylatomethyl)-4,17,25-trioxo-7,10,13-trioxa-3,16,18,24,26-pentaazanonacosanan-1-oyl]-L-prolyl-L-valinate], in series [1], the AUC (commonly concentration integrated over time) fell in the range of 1000 to 10000 ng·h/mL; the half-life (in general, the time in which the quantity being followed falls by half) lay in the range of 1 to 5 h; the clearance lay in the range of 0.5 to 5 mL/min/kg; the Vd lay within 0.1 to 0.3 L/kg.

Compound `CCc1c2c(nc3ccccc13)-c1cc3c(c(=O)n1C2)COC(=O)[C@@]3(CC)OC(=O)[C@@H](NC(=O)[C@@H]1CCCN1C(=O)[C@H](CC(=O)[O-])NC(=O)CCOCCOCCOCCNC(=O)[C@H](CCCCNC(=O)CCOCCOCCOCCNC(=O)CCC(=O)Nc1cccc2c(C(=O)NCC(=O)N3CC(F)(F)C[C@H]3C#N)ccnc12)NC(=O)CCOCCOCCOCCNC(=O)CCC(=O)Nc1cccc2c(C(=O)NCC(=O)N3CC(F)(F)C[C@H]3C#N)ccnc12)C(C)C.[Na+]` [Compound 20, sodium (4S)-4,11-diethyl-3,14-dioxo-3,4,12,14-tetrahydro-1H-pyrano[3′,4′:6,7]indolizino[1,2-b]quinolin-4-yl 1-[(2S)-15-{[N2,N6-bis(17-{[4-({2-[(2S)-2-cyano-4,4-difluoropyrrolidin-1-yl]-2-oxoethyl}carbamoyl)quinolin-8-yl]amino}-14,17-dioxo-4,7,10-trioxa-13-azaheptadecanan-1-oyl}-L-lysyl]amino)-2-(carboxylatomethyl)-4-oxo-7,10,13-trioxa-3-azapentadecanan-1-oyl]-L-prolyl-L-valinate] returned an AUC in series [1] of 1000 to 10000 ng·h/mL. The compound also registered a half-life in series [1] of 0.5 to 1 h. In series [1], the clearance was in the range of 0.5 to 5 mL/min/kg. Besides, in series [1], the Vd was in the range of 0.1 to 0.3 L/kg. In addition, the IC50 with 786-O (setting [2]) was above 1000 nM; with 786-O (setting [3]), 1 to 9.9 nM; in the series on HT29 (setting [2]), above 1000 nM; in the series with HT29 (setting [3]) it was 10 to 99 nM; in the series on NCI-H292 (setting [2]), 100 to 999 nM; in the series with NCI-H292 (setting [3]), 1 to 9.9 nM.

With `CCc1c2c(nc3ccccc13)-c1cc3c(c(=O)n1C2)COC(=O)[C@@]3(CC)OC(=O)[C@@H](NC(=O)[C@@H]1CCCN1C(=O)[C@H](CC(=O)O)NC(=O)CCOCCOCCOCCNC(=O)CCC(=O)Nc1cccc2c(C(=O)NCC(=O)N3CC(F)(F)C[C@H]3C#N)ccnc12)C(C)C` [Compound 6, sodium (4S)-4,11-diethyl-3,14-dioxo-3,4,12,14-tetrahydro-1H-pyrano[3′,4′:6,7]indolizino[1,2-b]quinolin-4-yl 1-[(2S)-2-(carboxylatomethyl)-20-{[4-({2-[(2S)-2-cyano-4,4-difluoropyrrolidin-1-yl]-2-oxoethyl}carbamoyl)quinolin-8-yl]amino}-4,17,20-trioxo-7,10,13-trioxa-3,16-diazaicosanan-1-oyl]-L-prolyl-L-valinate], in series [1], the AUC is below 1000 ng·h/mL, the half-life is below 0.5 h, the clearance was above 5 mL/min/kg and the Vd fell in the range of 0.3 to 0.9 L/kg.

With `CCc1c2c(nc3ccccc13)-c1cc3c(c(=O)n1C2)COC(=O)[C@@]3(CC)OC(=O)[C@@H](NC(=O)[C@@H]1CCCN1C(=O)[C@H](CC(=O)[O-])NC(=O)CCOCCOCCOCCNC(=O)CCCC(=O)NCCCC[C@H](NC(=O)CCOCCOCCOCCNC(=O)CCC(=O)Nc1cccc2c(C(=O)NCC(=O)N3CC(F)(F)C[C@H]3C#N)ccnc12)C(=O)NCCCCCCCC(=O)[O-])C(C)C.[Na+].[Na+]` [Compound 21, disodium (4S)-4,11-diethyl-3,14-dioxo-3,4,12,14-tetrahydro-1H-pyrano[3′,4′:6,7]indolizino[1,2-b]quinolin-4-yl 1-[(2S,27S)-27-[(7-carboxylatoheptyl)carbamoyl]-2-(carboxylatomethyl)-45-{[4-({2-[(2S)-2-cyano-4,4-difluoropyrrolidin-1-yl]-2-oxoethyl}carbamoyl)quinolin-8-yl]amino}-4,17,21,29,42,45-hexaoxo-7,10,13,32,35,38-hexaoxa-3,16,22,28,41-pentaazapentatetracontanan-1-oyl]-L-prolyl-L-valinate], the AUC in series [1] was in the range of 1000 to 10000 ng·h/mL. Also, the half-life in series [1] lay within 0.5 to 1 h. Also, the clearance in series [1] was 0.5 to 5 mL/min/kg. In addition, the Vd in series [1] was in the range of 0.1 to 0.3 L/kg. For the same compound, the IC50 in the series with 786-O (setting [2]) is above 1000 nM; with 786-O (setting [3]), 1 to 9.9 nM; in the series with HT29 (setting [2]) it was above 1000 nM; in the series with HT29 (setting [3]), 10 to 99 nM; in the series on NCI-H292 (setting [2]), 100 to 999 nM; in the series with NCI-H292 (setting [3]), 1 to 9.9 nM.

For `CCCNC(=O)Nc1cccc(S(=O)(=O)Nc2cccc([C@@H](CC(=O)O)NC(=O)Nc3ccc(NC(=O)NCCOCCOCCOCCC(=O)NCCCC[C@H](NC(=O)CCOCCOCCOCCNC(=O)Nc4ccc(NC(=O)N[C@H](CC(=O)O)c5cccc(NS(=O)(=O)c6cccc(NC(=O)NCCC)c6)c5)cc4)C(=O)NCCOCCOCCOCCC(=O)N[C@@H](CC(N)=O)C(=O)N4CCC[C@H]4C(=O)N[C@H](C(=O)NCCCN(C(=O)CO)[C@@H](c4cc(-c5cc(F)ccc5F)cn4Cc4ccccc4)C(C)(C)C)C(C)C)cc3)c2)c1` [Compound 18], in series [1], the area under the curve (AUC) fell in the range of 100000 to 500000 ng·h/mL, the half-life was 10 to 40 h, the clearance was 0.02 to 0.5 mL/min/kg and the Vd was in the range of 0.01 to 0.1 L/kg.

Turning to `CCCNC(=O)Nc1cccc(S(=O)(=O)Nc2cccc([C@@H](CC(=O)O)NC(=O)Nc3ccc(NC(=O)NCCOCCOCCOCCC(=O)NCCCC[C@H](NC(=O)CCOCCOCCOCCNC(=O)Nc4ccc(NC(=O)N[C@H](CC(=O)O)c5cccc(NS(=O)(=O)c6cccc(NC(=O)NCCC)c6)c5)cc4)C(=O)NCCOCCOCCOCCC(=O)N[C@@H](CC(=O)O)C(=O)N4CCC[C@H]4C(=O)N[C@H](C(=O)N[C@@H](CCN(C(=O)CO)[C@@H](c4cc(-c5cc(F)ccc5F)cn4Cc4ccccc4)C(C)(C)C)C(=O)NC)C(C)C)cc3)c2)c1` [Compound 27], in series [1], the AUC fell in the range of 100000 to 500000 ng·h/mL, the half-life fell in the range of 10 to 40 h, the clearance is 0.02 to 0.5 mL/min/kg and the Vd was in the range of 0.01 to 0.1 L/kg.
